Data reported in PMC3164901 (European journal of medicinal chemistry, 2011).
Where a name gives a salt, the structure may show the parent alone.

Columns and labels:
[1] = tested on: rats; details: ref [8]; cited from earlier work
[2] = target: recombinant human PED10A (Homo sapiens, UniProt Q9Y233); assay: PDE10A enzyme assay, [3H]cAMP scintillation proximity assay; assay type: biochemical
[3] = tested on: rats; details: ref [8], cited from earlier work
[4] = tested on: rat; details: ref [23]; cited from earlier work
[5] = ref [24]; cited from earlier work
[6] = target: PDE3A (Homo sapiens, UniProt Q14432); assay: PDE3A enzyme assay, [3H]cAMP SPA; assay type: biochemical
[7] = target: PDE3B (Homo sapiens, UniProt Q13370); assay: PDE3B enzyme assay, [3H]cAMP SPA; assay type: biochemical
PDE3B, sequence (Q13370 whole entry, species assumed): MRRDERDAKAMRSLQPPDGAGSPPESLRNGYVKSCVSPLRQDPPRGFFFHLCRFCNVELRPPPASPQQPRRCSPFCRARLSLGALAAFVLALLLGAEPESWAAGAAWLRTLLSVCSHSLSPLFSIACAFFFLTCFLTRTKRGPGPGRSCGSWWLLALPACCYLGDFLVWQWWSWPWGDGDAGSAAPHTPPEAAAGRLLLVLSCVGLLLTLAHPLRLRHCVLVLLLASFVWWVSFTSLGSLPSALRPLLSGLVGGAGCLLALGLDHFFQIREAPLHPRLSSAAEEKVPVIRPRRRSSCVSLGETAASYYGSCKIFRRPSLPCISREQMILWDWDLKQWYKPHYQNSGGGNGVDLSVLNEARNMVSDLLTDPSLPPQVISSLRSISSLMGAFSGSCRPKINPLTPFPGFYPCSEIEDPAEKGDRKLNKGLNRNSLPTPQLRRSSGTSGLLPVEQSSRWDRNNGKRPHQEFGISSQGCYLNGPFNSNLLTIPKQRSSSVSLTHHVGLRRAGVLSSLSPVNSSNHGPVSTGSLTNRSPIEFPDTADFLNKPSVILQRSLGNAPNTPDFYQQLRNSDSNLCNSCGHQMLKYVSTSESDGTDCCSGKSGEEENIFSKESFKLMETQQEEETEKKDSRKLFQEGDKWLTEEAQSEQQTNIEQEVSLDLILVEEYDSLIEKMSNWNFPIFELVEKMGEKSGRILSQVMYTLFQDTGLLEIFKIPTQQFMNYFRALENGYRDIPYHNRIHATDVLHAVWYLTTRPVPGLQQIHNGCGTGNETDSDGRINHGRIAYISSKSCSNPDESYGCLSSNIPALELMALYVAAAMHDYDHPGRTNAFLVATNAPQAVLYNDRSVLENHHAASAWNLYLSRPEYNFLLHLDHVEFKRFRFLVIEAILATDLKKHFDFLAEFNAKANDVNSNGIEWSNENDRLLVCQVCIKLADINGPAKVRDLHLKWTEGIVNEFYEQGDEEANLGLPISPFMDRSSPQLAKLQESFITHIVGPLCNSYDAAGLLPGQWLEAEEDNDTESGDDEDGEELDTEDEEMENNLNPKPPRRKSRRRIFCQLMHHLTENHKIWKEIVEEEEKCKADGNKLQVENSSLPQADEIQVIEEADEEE

recombinant human PED10A, sequence (Q9Y233 whole entry): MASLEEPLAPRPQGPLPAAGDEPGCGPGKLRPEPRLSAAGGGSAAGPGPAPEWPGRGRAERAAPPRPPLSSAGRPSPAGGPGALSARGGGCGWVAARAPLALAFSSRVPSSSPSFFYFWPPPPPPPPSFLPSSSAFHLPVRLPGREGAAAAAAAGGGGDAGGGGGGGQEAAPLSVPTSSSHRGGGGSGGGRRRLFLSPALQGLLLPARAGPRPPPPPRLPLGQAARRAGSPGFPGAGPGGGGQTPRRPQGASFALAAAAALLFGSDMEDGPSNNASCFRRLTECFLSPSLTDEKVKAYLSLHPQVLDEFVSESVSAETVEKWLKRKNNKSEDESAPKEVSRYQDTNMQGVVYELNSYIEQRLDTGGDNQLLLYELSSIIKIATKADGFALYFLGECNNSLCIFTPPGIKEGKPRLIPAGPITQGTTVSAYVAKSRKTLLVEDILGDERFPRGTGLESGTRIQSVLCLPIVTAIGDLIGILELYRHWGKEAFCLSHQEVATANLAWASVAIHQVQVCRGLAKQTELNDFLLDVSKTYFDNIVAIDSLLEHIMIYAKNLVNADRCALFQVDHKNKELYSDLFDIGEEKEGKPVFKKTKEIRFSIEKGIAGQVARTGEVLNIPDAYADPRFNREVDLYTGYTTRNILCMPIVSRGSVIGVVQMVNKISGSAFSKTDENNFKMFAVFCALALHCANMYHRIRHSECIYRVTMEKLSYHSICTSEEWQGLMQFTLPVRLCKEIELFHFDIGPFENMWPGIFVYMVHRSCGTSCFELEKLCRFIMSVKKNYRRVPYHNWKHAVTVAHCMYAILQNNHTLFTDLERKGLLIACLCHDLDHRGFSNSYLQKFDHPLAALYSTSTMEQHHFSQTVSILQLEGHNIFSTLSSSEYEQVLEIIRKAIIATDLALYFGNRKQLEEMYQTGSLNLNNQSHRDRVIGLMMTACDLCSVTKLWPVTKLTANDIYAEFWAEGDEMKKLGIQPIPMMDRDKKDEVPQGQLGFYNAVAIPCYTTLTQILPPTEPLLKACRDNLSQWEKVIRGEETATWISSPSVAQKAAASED
PDE3A, sequence (Q14432 whole entry, species assumed): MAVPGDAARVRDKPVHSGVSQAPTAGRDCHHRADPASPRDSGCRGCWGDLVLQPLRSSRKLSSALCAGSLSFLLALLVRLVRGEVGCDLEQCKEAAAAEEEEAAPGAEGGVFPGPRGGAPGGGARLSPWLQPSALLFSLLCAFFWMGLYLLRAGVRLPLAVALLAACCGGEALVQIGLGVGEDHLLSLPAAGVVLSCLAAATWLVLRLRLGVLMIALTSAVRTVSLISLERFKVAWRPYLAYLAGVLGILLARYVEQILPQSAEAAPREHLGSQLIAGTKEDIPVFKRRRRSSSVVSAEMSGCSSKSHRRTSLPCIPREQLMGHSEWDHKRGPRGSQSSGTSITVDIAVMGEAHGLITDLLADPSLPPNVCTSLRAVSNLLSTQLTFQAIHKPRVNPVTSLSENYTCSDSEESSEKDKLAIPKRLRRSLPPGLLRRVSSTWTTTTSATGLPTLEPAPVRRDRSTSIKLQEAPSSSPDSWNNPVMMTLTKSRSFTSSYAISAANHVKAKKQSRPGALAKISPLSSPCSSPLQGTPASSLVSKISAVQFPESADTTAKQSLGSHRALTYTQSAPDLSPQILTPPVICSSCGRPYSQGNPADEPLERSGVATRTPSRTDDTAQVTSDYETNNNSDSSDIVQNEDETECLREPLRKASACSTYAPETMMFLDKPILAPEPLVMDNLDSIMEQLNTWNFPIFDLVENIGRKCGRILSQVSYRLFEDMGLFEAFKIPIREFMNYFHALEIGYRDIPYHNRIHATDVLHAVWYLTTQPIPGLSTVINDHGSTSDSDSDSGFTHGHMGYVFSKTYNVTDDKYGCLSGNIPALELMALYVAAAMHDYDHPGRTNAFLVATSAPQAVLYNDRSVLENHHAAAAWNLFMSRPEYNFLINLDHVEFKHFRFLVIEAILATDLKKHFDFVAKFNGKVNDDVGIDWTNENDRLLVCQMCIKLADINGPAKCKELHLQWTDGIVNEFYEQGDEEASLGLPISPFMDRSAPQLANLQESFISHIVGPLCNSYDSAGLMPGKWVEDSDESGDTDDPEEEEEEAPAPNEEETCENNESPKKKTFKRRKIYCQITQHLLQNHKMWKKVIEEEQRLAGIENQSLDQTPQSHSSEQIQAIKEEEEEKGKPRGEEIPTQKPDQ

COc1cc2ncnc(C3CC[C@H](Oc4cnc5ccccc5n4)C3)c2cc1OC (stereo partly shown) [PQ-10]
hyperactivity induced by phenylcyclohexylpiperidine (PCP) and amphetamine [1]: able to reduce hyperactivity

COc1cc2ccnc(Cc3ccc(OCCOCCF)c(OC)c3)c2cc1OC.O=C(O)C(=O)O [8c, 1-(4-(2-(2-Fluoroethoxy)ethoxy)-3-methoxybenzyl)-6,7-dimethoxyisoquinoline oxalate]
increase of PDE10A affinity versus 8b ([2]; 4-fluoroethoxy extended to 4-(2-(2-fluoroethoxy))ethoxy): 2 fold

COc1ccc(Cc2nccc3cc(OC)c(OC)cc23)cc1OC [Papaverine, 1-(3,4-dimethoxybenzyl-6,7-dimethoxy)isoquinoline]
catalepsy on its own ([3]; compound alone): did not cause catalepsy on its own
effect on cataleptic effect of the D2 receptor antagonist haloperidol ([3]; with haloperidol): potentiated the cataleptic effect
hyperactivity induced by phenylcyclohexylpiperidine (PCP) and amphetamine [1]: able to reduce hyperactivity
efficacy in novel object recognition [4]: shown efficacy
in vivo metabolism [5]: rapid in vivo metabolism

COc1cc(Cc2nccc3cc(OC)c(OCCF)cc23)cc(OC)c1 [6l, 1-(3,5-Dimethoxybenzyl)-7-(2-fluoroethoxy)-6-methoxyisoquinoline oxalate]
IC50 [2]: 262 ± 1.1 nM

COc1ccc(Cc2ncnc3cc(OC)c(OC)cc23)cc1 [compound 11, 6,7-Dimethoxy-4-(4-methoxybenzyl)quinazoline oxalate]
IC50 [2]: 48.8 ± 1.07 nM
IC50 [6]: 3980 ± 510 nM
IC50 [7]: 3100 ± 270 nM

Cn1cc(-c2ccncc2)c(-c2ccc(OCc3ccc4ccccc4n3)cc2)n1 [MP-10]
hyperactivity induced by phenylcyclohexylpiperidine (PCP) and amphetamine [1]: able to reduce hyperactivity

FC(F)(F)Cn1cc(-c2ccncc2)c(-c2ccc(OCc3ccc4ccccc4n3)cc2)n1 [TP-10]
hyperactivity induced by phenylcyclohexylpiperidine (PCP) and amphetamine [1]: able to reduce hyperactivity
